How the values were obtained:
[1] = test system: Male Sprague-Dawley rats; assay: blood pressure and heart rate during isoflurane anesthesia; format: in vivo, rat
Excerpt: On the fifth day after saline or ODNs injection, each rat was placed in a clear plastic cone and anesthetized with 5% isoflurane in oxygen for three to five minutes. After tracheostomy, the trachea of each animal was intubated with a 16-gauge polyethylene catheter. The inspired isoflurane concentration was reduced to 2%, and the animals breathed spontaneously until cannulation of a carotid artery and a jugular vein with PE-50 tubing was accomplished. The isoflurane concentration was decreased further to 1.5%, and ventilation was controlled by a Harvard Animal Respirator (Harvard Apparatus, South Natick, Mass.) adjusted according to the measurement of arterial blood gases to maintain normal partial pressure of oxygen (PO2=91-94 mmHg), partial pressure of carbon dioxide (PCO2=33-41 mmHg) and pH (7.4-7.44). Electrocardiography and systolic and diastolic blood pressure were monitored using a Grass Polygraph (Astroumed Grass, Quincy, Mass.) and Gould Pressure Transducer (Gould, Cleveland, Ohio). Rectal temperature was maintained between 36.5 and 37.5° C. by use of a heating blanket and warming lights.
In some saline-treated rats, after initial baseline MAC determination, NMDA at the dose of 1.25 μg^38 or saline was injected intrathecally in a volume of 10 μl saline, followed by an injection of 10 μl saline to flush the catheter. Fresh NMDA solution was prepared for each experiment. […] At this isoflurane concentration, 10 min after the intrathecal injection of NMDA, the animals were tested again for reactivity to tail clamp. The concentration of isoflurane was increased, and response to tail clamp was checked every 12-15 min thereafter until a negative response was achieved. In some antisense ODN (50 μg)-treated rats, after initial MAC determination, NMDA or saline was also administered intrathecally. The MAC for isoflurane was again determined following the aforementioned procedures.

[2] = test system: Male Sprague-Dawley rats; assay: formalin-induced pain behaviors (flinches and shakes); format: in vivo, rat; settings: for reduction of the number of flinches and shakes evoked by formalin: 50 μg intrathecal
Procedure: (§1) All of the experiments were carried out with the approval of the Animal Care Committee at the Johns Hopkins University. Thirty-eight male Sprague-Dawley rats (250-300 g, Hilltop Laboratory Animals, Scottsdale, Pa., USA) were implanted with an intrathecal PE-10 catheter at the rostral level of the spinal cord lumbar enlargement according to the method described by Yaksh and Rudy. After 4 to 7 days of recovery, they were intrathecally injected with one of the following agents every 24 hours for 4 consecutive days: saline (10 μl, n=6), PSD-95 antisense oligodeoxynucleotide (ODN) (12.5 μg/10 μl, n=6; 25 μg/10 μl, n=6; 50 μg/10 μl, n=6), sense ODN (50 μg/10 μl, n=5) or missense ODN (50 μg/10 μl, n=9). On the fifth day, formalin (4%, 100 μl) was injected into one of the hindpaws. The number of flinches and shakes of the injected paw was assessed for 1 hour. The observational session was divided into phasic (0-10 min) and tonic (10-60 min) periods. Rats were sacrificed two hours after formalin injection and their lumbar spinal cords were harvested for c-fos immunohistochemistry.

[3] = test system: Male Sprague-Dawley rats; assay: tests of locomotor function (placing, grasping, righting reflex) and general behaviors; format: in vivo, rat; settings: mean (SD)
Procedure: The effects of ODNs on locomotor function were examined using the following methods.^52 The animals were organized randomly into six groups: control (saline); 12.5 antisense ODN; 25 μg antisense ODN; 50 μg antisense ODN; 50 μg sense ODN; 50 μg missense ODN. The rats were pretreated with ODNs or saline in the manner described above. On the fifth day, 10 μl of saline was injected intrathecally for each rat. In some saline or antisense ODN (50 μg)-treated rats, fresh NMDA solution (1.25 μg/10 μl) was injected intrathecally. The following tests were performed with the experimenter blind to which group was treated with the agents: (1) Placing reflex: The rat was held with the hind limbs slightly lower than the forelimbs, and the dorsal surfaces of the hind paws were brought into contact with the edge of a table. The experimenter recorded whether the hind paws were placed on the table surface reflexively; (2) Grasping reflex: The rat was placed on a wire grid and the experimenter recorded whether the hind paws grasped the wire on contact; (3) Righting reflex: The rat was placed on its back on a flat surface and the experimenter noted whether it immediately assumed the normal upright position. […] In addition, the rat general behaviors including spontaneous activity were observed.

[4] = test system: rats; assay: rat neuropathic pain model, unilateral L5 spinal nerve ligation, hind paw withdrawal; format: in vivo; settings: 50 μg/10 μl intrathecal every 24 h for 4 days
Procedure: The effect of the deficiency of PSD-95/SAP90 on mechanical and thermal hyperalgesia in a rat neuropathic pain model was observed. The antisense oligonucleotide (OND) specifically against PSD-95/SAP90 was employed to reduce the expression of PSD-95/SAP90 in spinal cord. The rats were injected intrathecally with saline (10 μl), antisense OND (50 μg/10 μl) or sense OND (50 μg/10 μl) every 24 h for 4 days. The unilateral L5 spinal nerve was ligated. Hind paw withdrawal response to mechanical or heat stimuli was conducted 1 day prior to the surgery and at 3, 5, 7 and 9 days postoperatively. In the saline-treated group, mechanical and thermal hyperalgesia developed within 3 days and persisted for 9 days or longer. […] PSD-95/SAP90 is likely involved in the molecular mechanism of the production of hyperalgesia in neuropathic pain triggered via NMDA receptor activation.

[5] = test system: c-fos; assay: c-fos immunohistochemistry in lumbar spinal cord after formalin; format: in vivo, rat
Procedure: as §1

[6] = 50 μg, count of normal reflexes in five trials
[7] = pretreated with 50 μg antisense ODN, intrathecal NMDA 1.25 μg
[8] = 12.5 μg, count of normal reflexes in five trials
[9] = 25 μg, count of normal reflexes in five trials
[10] = 50 μg AS + 1.25 μg NMDA, five trials

## 5′-AAGCCCTTGTTCCCATTT-3′ (DNA, backbone and methylation of C not given here; listed as Rattus rattus) [MS, missense OND control, reference compound]
[1]; 50 μg, before the tail clamp
  BP Diastolic: 105.75 ± 11.40 mmHg
  BP Systolic: 121.33 ± 15.84 mmHg
  Heart rate: 524.70 ± 44.90 beats/min
[2]; 50 μg/10 μl, either period
  difference in the number of flinches and shakes vs saline-treated group: did not show any significant difference
[3]; [6]
  Grasping: 5 (0)
  Placing: 5 (0)
  Righting: 5 (0)

## 5′-TGTGATCTCCTCATACTC-3′ (DNA, backbone and methylation of C not given here; listed as Rattus rattus) [antisense oligonucletide corresponding to the PDZ domain nucleotides 241 to 258 of rat PSD-95/SAP90 mRNA]
[4]
  onset of the mechanical hyperalgesia: significant delay
  onset of the thermal hyperalgesia: significant delay
[5]; 50 μg intrathecal
  decrease of the number of Fos-like immunoreactive neurons per section: 48%
[5]; 12.5 and 25 μg
  changes in the number of Fos-like immunoreactive neurons vs saline-treated group: failed to produce significant changes
[1]; 12.5 μg, before the tail clamp
  BP Diastolic: 112.58 ± 7.14 mmHg
  BP Systolic: 127.58 ± 11.72 mmHg
  Heart rate: 534.80 ± 29.13 beats/min
[1]; 25 μg, before the tail clamp
  BP Diastolic: 105.83 ± 7.89 mmHg
  BP Systolic: 122.75 ± 10.81 mmHg
  Heart rate: 541.20 ± 16.70 beats/min
[1]; 50 μg, before the tail clamp
  BP Diastolic: 112.50 ± 11.20 mmHg
  BP Systolic: 129.58 ± 11.73 mmHg
  Heart rate: 514.20 ± 62.20 beats/min
[1]; [7]
  Heart rate: 553±17 beats/min
  diastolic blood pressure: 117.00±6.35 mmHg
  systolic blood pressure: 138.00±5.77 mmHg
[2]; phasic period (0-10 min)
  reduction of the number of flinches and shakes evoked by formalin: but not in the phasic period
[2]; tonic period (10-60 min)
  reduction of the number of flinches and shakes evoked by formalin: 59%
[2]; 12.5 and 25 μg, phasic and tonic periods
  changes in the number of flinches and shakes vs saline-treated group: failed to produce significant changes
[3]; [8]
  Grasping: 5 (0)
  Placing: 5 (0)
  Righting: 5 (0)
[3]; [9]
  Grasping: 5 (0)
  Placing: 5 (0)
  Righting: 5 (0)
[3]; [10]
  Grasping: 4.83 (0.41)
  Placing: 4.83 (0.41)
  Righting: 4.83 (0.41)
[3]; [6]
  Grasping: 4.67 (0.52)
  Placing: 4.83 (0.41)
  Righting: 4.83 (0.41)
